Data on 20 molecules can be found in patent publication US8268823B2, “Medical use of triazine derivatives” (University of Greenwich, priority 2006, dated 2012).

The structures appear in SMILES notation. Where a name gives a salt, the structure may show the parent alone. Read-outs that look alike come from different tables or passages of the source.

The subject of data set [1] is sodium channel. Put plainly: veratrine-evoked uptake of [14C]guanidine into rat forebrain synaptosomes ([14C]guanidine flux). The data set is classed as biochemical. Particulars: for Hill (uptake of [14C]guanidine): slope.
For data set [2], the system named is sodium channel. The data set is classed as binding, rat.
The target in data set [3] is T1, DiHydroFolate Reductase (DHFR) (Rattus norvegicus, UniProt Q920D2).
T1 construct: from tissue; host or cells: rat liver homogenate supernatant (47,500 x g)
T1 sequence (Q920D2 1-187): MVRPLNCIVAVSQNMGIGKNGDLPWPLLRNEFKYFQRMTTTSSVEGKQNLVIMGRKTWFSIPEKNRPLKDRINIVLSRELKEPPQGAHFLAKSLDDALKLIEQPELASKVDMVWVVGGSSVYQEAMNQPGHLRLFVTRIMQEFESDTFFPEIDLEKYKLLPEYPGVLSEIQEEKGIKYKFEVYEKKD
Description: inhibition of binding of [3H]methotrexate to rat liver homogenate supernatant. Particulars: for IC50: rat liver supernatant; for inhibition at 10 µM: assay concentration 10 μM; for inhibition at 99 µM: assay concentration 99 μM; for inhibition at 50 µM: assay concentration 50 μM.

Data set [4] deals with T2, hERG potassium channel (Homo sapiens, UniProt Q12809). Description: in vitro.
Data set [5] has as its system 0.4 mm slices of rat hippocampus. Description: hippocampal slice assay: ATP after iodoacetate metabolic insult. Particulars: Rattus norvegicus; for Emax: read-out: Max Protection (% v TTX).
In data set [6] the target is T2, hERG potassium channel. Put plainly: inhibition of binding of [3H]astemizole to cell membranes expressing hERG. A general note: Block of hERG is tested as a sign of cardiac risk.
[7] abbreviates: Table 3, rat forebrain synaptosomes, read-out: [14C]guanidine flux Mean (IC50: μM).
[8] abbreviates: Table 5, read-out: [14C]guanidine flux IC50.
The mark [9] stands for this setting: Table 4, tissue prep'n Synaptosomes, read-out: [3H]BTX-B binding Mean (IC50: μM).
[10] abbreviates: Table 5, Synaptosome data, read-out: [3H]BTX-B IC50.
The mark [11] stands for this setting: hERG / [3H]BTX-B selectivity, ratio of extrapolated hERG IC50 to [3H]BTX-B IC50 (synaptosomes).
Where [12] appears, read: hERG / [14C]guanidine flux selectivity, ratio of extrapolated hERG IC50 to [14C]guanidine flux IC50.
The mark [13] stands for this setting: read-out: hippocampal slice EC50 (μM).
Where [14] appears, read: Table 4, tissue prep'n Homogenate, read-out: [3H]BTX-B binding Mean (IC50: μM).
Where [15] appears, read: read-out: [3H]methotrexate binding Inhibition (% @ assay conc'n).
The mark [16] stands for this setting: Table 8, read-out: IC50 (μM) (uptake of [14C]guanidine).

T2 sequence (Q12809 whole entry): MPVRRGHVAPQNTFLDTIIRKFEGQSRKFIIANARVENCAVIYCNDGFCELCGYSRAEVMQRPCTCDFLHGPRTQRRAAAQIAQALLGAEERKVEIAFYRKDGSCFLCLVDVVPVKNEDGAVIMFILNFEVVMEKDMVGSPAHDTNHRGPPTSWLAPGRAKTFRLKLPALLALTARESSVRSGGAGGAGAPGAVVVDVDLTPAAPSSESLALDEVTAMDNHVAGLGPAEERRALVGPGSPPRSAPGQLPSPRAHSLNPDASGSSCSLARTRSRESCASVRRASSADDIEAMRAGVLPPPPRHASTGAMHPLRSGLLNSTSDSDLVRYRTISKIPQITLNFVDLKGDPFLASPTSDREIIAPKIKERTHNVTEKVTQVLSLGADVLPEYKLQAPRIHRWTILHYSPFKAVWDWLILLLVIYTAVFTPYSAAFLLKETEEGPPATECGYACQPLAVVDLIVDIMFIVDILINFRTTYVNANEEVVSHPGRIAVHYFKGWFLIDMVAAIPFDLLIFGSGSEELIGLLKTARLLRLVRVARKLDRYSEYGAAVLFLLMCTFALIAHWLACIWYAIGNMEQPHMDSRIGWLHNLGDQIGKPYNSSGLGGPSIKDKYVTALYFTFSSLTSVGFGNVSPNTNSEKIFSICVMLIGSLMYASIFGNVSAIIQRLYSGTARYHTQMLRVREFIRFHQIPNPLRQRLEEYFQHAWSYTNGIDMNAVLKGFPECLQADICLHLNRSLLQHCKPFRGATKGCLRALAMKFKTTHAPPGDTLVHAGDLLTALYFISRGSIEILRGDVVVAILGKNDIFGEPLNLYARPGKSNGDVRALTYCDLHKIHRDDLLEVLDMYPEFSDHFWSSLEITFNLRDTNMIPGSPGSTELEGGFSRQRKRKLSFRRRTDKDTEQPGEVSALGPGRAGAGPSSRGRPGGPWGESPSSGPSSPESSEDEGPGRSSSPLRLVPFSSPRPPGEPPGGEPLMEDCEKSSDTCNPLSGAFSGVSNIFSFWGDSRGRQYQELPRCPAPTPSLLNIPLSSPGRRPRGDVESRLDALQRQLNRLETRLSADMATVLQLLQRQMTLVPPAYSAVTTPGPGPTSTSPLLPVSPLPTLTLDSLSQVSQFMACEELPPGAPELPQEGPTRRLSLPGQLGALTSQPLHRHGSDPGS

By IC50 is commonly meant the point on the concentration scale where inhibition reaches its midpoint. As a reminder, the inhibition is the change of the read-out against control, counted positive when it falls. One may read the EC50 as the concentration that produces a half-maximal response. Consider `CCCn1nc(-c2cc(Cl)cc(Cl)c2Cl)c(N)nc1=N` [Example 34, 5(3)-Amino-6-(2,3,5-trichlorophenyl)-2,3(2,5)-dihydro-3(5)-imino-2-propyl-1,2,4-triazine], for which the IC50 in the data set with sodium channel [1] (setting [7]) was 1.3 µM; in the data set with sodium channel [1] (setting [8]) it was 1.3 µM; with sodium channel [2] (setting [9]) it was 0.5 µM; with sodium channel [2] (setting [10]), 0.5 µM; in data set [3], over 300 µM; at hERG potassium channel [6], 6.1 µM. The inhibition at 10 µM against hERG potassium channel [4] was found to be 62%. Further, the values for the selectivity ratio at hERG potassium channel [4] (setting [11]) and on hERG potassium channel [4] (setting [12]) were 12.3 and 4.7, respectively. Besides, the Emax in data set [5] is 37%. Further, the EC50 in data set [5] (setting [13]) was 9.8 µM.
In general, melting point refers to the temperature, or range, at which the solid turns liquid. In turn, `Cn1nc(-c2cc(Cl)cc(Cl)c2)c(N)nc1=N` (as salt: methanesulfonate) [Example 53, 5(3)-Amino-6-(3,5-dichlorophenyl)-2,3(2,5)-dihydro-3(5)-imino-2-methyl-1,2,4-triazine methanesulfonate] displayed a melting point of 234 to 236 °C.
As to `Cn1nc(-c2ccc(Cl)cc2Cl)c(N)nc1=N` (as salt: methanesulfonate) [Example 45, 5(3)-Amino-6-(2,4-dichlorophenyl)-2,3(2,5)-dihydro-3(5)-imino-2-methyl-1,2,4-triazine methanesulfonate], the melting point lay in the range of 283 to 285 °C.
For `CCn1nc(-c2cc(Cl)cc(Cl)c2)c(N)nc1=N` (as salt: methanesulfonate) [Example 54, 5(3)-Amino-6-(3,5-dichlorophenyl)-2,3(2,5)-dihydro-3(5)-imino-2-ethyl-1,2,4-triazine methanesulfonate], the melting point was 217 to 219 °C.
Take `CCCn1nc(-c2cccc(Cl)c2Cl)c(N)nc1=N` [Example 6, 5(3)-Amino-6-(2,3-dichlorophenyl)-2,3(2,5)-dihydro-3(5)-imino-2-propyl-1,2,4-triazine]: the IC50 in the data set with sodium channel [1] (setting [7]) worked out at 2.8 µM; in the data set on sodium channel [1] (setting [8]), 4.8 µM; in the data set on sodium channel [2] (setting [14]), 0.5 µM; with sodium channel [2] (setting [9]), 3.6 µM; in the data set with sodium channel [2] (setting [10]), 2.2 µM; on hERG potassium channel [6], 2.8 µM. The inhibition at 10 µM in data set [3] (setting [15]) worked out at 0%; at hERG potassium channel [4], 78%. Moreover, in data set [3] (setting [15]), the inhibition at 99 µM was 2%. The selectivity ratio at hERG potassium channel [4] (setting [11]) was 1.3; on hERG potassium channel [4] (setting [12]) it was 0.6. The EC50 in data set [5] (read-out: EC50 (max set @ 100)) turned out to be 14.5 µM; in data set [5] (setting [13]) it was 10.4 µM. The Emax in data set [5] amounted to 81 ± 27%.
As for `Nc1nnc(-c2cc(Cl)cc(Cl)c2)c(N)n1` [Example 42, 3,5-Diamino-6-(3,5-dichlorophenyl)-1,2,4-triazine], the melting point lay within 223 to 225 °C. Further, the IC50 in the data set on sodium channel [1] (setting [7]) came to 155 µM. For the same molecule, the inhibition at 50 µM in data set [3] (setting [15]) stood at 99%.
Regarding `Nc1nnc(-c2cc(Cl)cc(Cl)c2Cl)c(N)n1` [Example 31, 6-(2,3,5-trichlorophenyl)-1,2,4-triazine-3,5-diamine], the IC50 stood at 16.2 µM in the data set with sodium channel [1] (setting [7]); 16.2 µM in the data set on sodium channel [1] (setting [8]); 21.9 µM in the data set on sodium channel [2] (setting [9]); 21.9 µM in the data set on sodium channel [2] (setting [10]); 41 ± 4.7 µM in data set [3]; 66.9 µM on hERG potassium channel [6]. The inhibition at 10 µM against hERG potassium channel [4] was found to be 13%. Moreover, the results for the selectivity ratio at hERG potassium channel [4] (setting [11]) and on hERG potassium channel [4] (setting [12]) were 3.1 and 4.1, respectively. The results for the EC50 in data set [5] (read-out: EC50 (max set @ 100)) and in data set [5] (setting [13]) were 2.2 µM and 1.8 µM, respectively. In data set [5], the Emax is 91 ± 4%.
In turn, `N=c1nc(N)c(-c2cc(Cl)cc(Cl)c2Cl)nn1CCF` (as salt: methanesulfonate) [Example 55, 5(3)-Amino-6-(2,3,5-trichlorophenyl)-2,3(2,5)-dihydro-3(5)-imino-2-(2-fluoroethyl)-1,2,4-triazine methanesulfonate] showed a melting point of 212 to 214 °C.
On to `Cn1nc(-c2cccc(Cl)c2Cl)c(N)nc1=N` [Example 2, 5-amino-6-(2,3-dichlorophenyl)-2,3-dihydro-3-imino-2-methyl-1,2,4-triazine], for which the IC50 with sodium channel [1] (Table 1, mean ± sem (n), read-out: [14C] guanidine uptake (synaptosomes), mean IC50) amounted to 35.9 ± 1.8 µM; in the data set on sodium channel [1] (setting [7]) it was 35.9 µM; with sodium channel [1] (setting [8]), 35.9 µM; in the data set with sodium channel [2] (Table 1, synaptosomes, mean ± sem (n), read-out: [3H]BTX-B binding (synaptosomes), mean IC50) it was 7.4 ± 0.4 µM; in the data set with sodium channel [2] (setting [14]), 2.5 µM; in the data set with sodium channel [2] (setting [9]), 7.2 µM. The values for the IC50 with sodium channel [2] (setting [10]) and on hERG potassium channel [6] were 7.2 µM and 73.3 µM, respectively. The results for the inhibition at 10 µM (in data set [3] (setting [15]); against hERG potassium channel [4]) were 0% and 12%, respectively. Moreover, the inhibition at 99 µM in data set [3] (setting [15]) is -3%. In addition, the selectivity ratio on hERG potassium channel [4] (setting [11]) was 10.2; on hERG potassium channel [4] (setting [12]), 2. Besides, the EC50 in data set [5] (read-out: EC50 (max set @ 100)) amounted to 37.4 µM; in data set [5] (setting [13]), 36.3 µM. Also, in data set [5], the Emax was found to be 98 ± 5%.
In turn, `Cn1nc(-c2cc(Cl)ccc2Cl)c(N)nc1=N` (as salt: methanesulfonate) [Example 48, 5(3)-Amino-6-(2,5-dichlorophenyl)-2,3(2,5)-dihydro-3(5)-imino-2-methyl-1,2,4-triazine methanesulfonate] showed a melting point of 297 to 298 °C.
Regarding `CN1CCN(c2ncc(-c3cc(Cl)cc(Cl)c3Cl)c(N)n2)CC1` [Sipatrigine, reference compound], the inhibition at 10 µM in data set [3] (setting [15]) was determined as 0%; against hERG potassium channel [4] (hERG % inhibition @ 10 μM), 87%. Also, in data set [3] (read-out: [3H]methotrexate binding Inhibition (% @ assay conc'n), assay concentration 198 μM), the inhibition at 198 µM is -6%. Also, the EC50 worked out at 12.6 µM in data set [5] (read-out: EC50 (max set @ 100)) and 10.7 µM in data set [5] (setting [13]). Further, the Emax in data set [5] is 90%. On hERG potassium channel [6], this molecule yielded an IC50 of 1.5 µM.
Regarding `N=c1nc(N)c(-c2cccc(Cl)c2Cl)nn1Cc1ccccc1` [Example 9, 5(3)-Amino-6-(2,3-dichlorophenyl)-2,3(2,5)-dihydro-3(5)-imino-2-phenylmethyl-1,2,4-triazine hemi-methanesulfonate], the IC50 in the data set on sodium channel [1] (setting [7]) is 4.8 µM. In addition, in the data set with sodium channel [2] (setting [9]), the IC50 worked out at 2.2 µM. Further, in data set [3] (setting [15]), the inhibition at 10 µM is 2% and the inhibition at 99 µM is -4%. For the same molecule, the EC50 in data set [5] (setting [13]) is over 30 µM.
Turning to `Cn1nc(-c2cc(Cl)cc(Cl)c2Cl)c(N)nc1=N` [Example 32, 5(3)-Amino-6-(2,3,5-trichlorophenyl)-2,3(2,5)-dihydro-3(5)-imino-2-methyl-1,2,4-triazine], the IC50 is 6.4 µM in the data set with sodium channel [1] (setting [7]); 6.4 µM in the data set on sodium channel [1] (setting [8]); 1.9 µM in the data set with sodium channel [2] (setting [9]); 1.9 µM with sodium channel [2] (setting [10]); over 250 µM in data set [3]; 20.3 µM on hERG potassium channel [6]. The inhibition at 10 µM against hERG potassium channel [4] was 33%. Also, the selectivity ratio is 10.7 on hERG potassium channel [4] (setting [11]) and 3.2 on hERG potassium channel [4] (setting [12]). Moreover, the Emax in data set [5] came to 65 ± 7%. In data set [5] (setting [13]), the EC50 is 5.9 µM.
Regarding `Nc1nnc(-c2ccccc2OC(F)(F)F)c(N)n1` [Example 51, 3,5-Diamino-6-(2-trifluoromethoxyphenyl)-1,2,4-triazine], the melting point fell in the range of 148 to 150 °C. For the same molecule, in the data set on sodium channel [1] (Table 8), the “pIC50 (uptake of [14C]guanidine)” value came to 2.76 ± 0.11 and the “Hill (uptake of [14C]guanidine)” value is listed as 1.22. Also, the half-maximal inhibitory concentration (IC50) with sodium channel [1] (setting [16]) was determined as 1740 µM.
Regarding `CCn1nc(-c2cc(Cl)ccc2Cl)c(N)nc1=N` (as salt: methanesulfonate) [Example 49, 5(3)-Amino-6-(2,5-dichlorophenyl)-2,3(2,5)-dihydro-3(5)-imino-2-ethyl-1,2,4-triazine methanesulfonate], the melting point is 264 to 265 °C.
For the molecule `Nc1nnc(-c2cc(Cl)ccc2Cl)c(N)n1` [Example 41, 3,5-Diamino-6-(2,5-dichlorophenyl)-1,2,4-triazine], the melting point was in the range of 228 to 230 °C. In addition, the IC50 in the data set with sodium channel [1] (setting [7]) came to 525 µM. Moreover, in data set [3] (setting [15]), the inhibition at 50 µM came out at 93%.
Regarding `CCn1nc(-c2ccccc2)c(N)nc1=N` (as salt: methanesulfonate) [Example 47, 5(3)-Amino-6-phenyl-2,3(2,5)-dihydro-3(5)-imino-2-ethyl-1,2,4-triazine methanesulfonate], the melting point lay within 230 to 232 °C.
As for `CCn1nc(-c2cc(Cl)cc(Cl)c2Cl)c(N)nc1=N` [Example 50], the melting point is 269 to 271 °C. In the data set on sodium channel [1] (Table 8), the “pIC50 (uptake of [14C]guanidine)” value came to 5.52 ± 0.03 and the “Hill (uptake of [14C]guanidine)” value is listed as 0.93. Further, in the data set with sodium channel [1] (setting [16]), the IC50 worked out at 3 µM.
In turn, `Cn1nc(-c2ccccc2)c(N)nc1=N` (as salt: methanesulfonate) [Example 46, 5(3)-Amino-6-phenyl-2,3(2,5)-dihydro-3(5)-imino-2-methyl-1,2,4-triazine methanesulfonate] returned a melting point of 230 to 232 °C.
As for `COc1ccc(Cn2nc(-c3cccc(Cl)c3Cl)c(N)nc2=N)cc1` [Example 19, 5(3)-Amino-6-(2,3-dichlorophenyl)-2,3(2,5)-dihydro-3(5)-imino-2-(4-methoxy)phenylmethyl-1,2,4-triazine], the melting point was in the range of 212 to 215 °C. Besides, the IC50 in the data set with sodium channel [1] (setting [7]) worked out at 5 µM. Moreover, in data set [3] (setting [15]), the inhibition at 10 µM is -2% and the inhibition at 99 µM was -3%.
